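Five concentrations, 48 hours, 96-well plates. GI50 marks 50% less growth. The concentration for full growth arrest is given as TGI.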
Legend:
Experiment in all cases: NCI anticancer screen, dose series, 48 h
[1] = test system: HL-60(TB) leukemia
[2] = test system: SF-268 CNS
[3] = test system: PC-3 prostate
[4] = test system: SF-295 CNS
[5] = test system: MCF7 breast
[6] = test system: A498 renal
[7] = test system: HCC-2998 colon
[8] = test system: M14 melanoma
[9] = test system: OVCAR-3 ovarian
[10] = test system: MOLT-4 leukemia
[11] = test system: HS 578T breast
[12] = test system: SF-539 CNS
[13] = test system: IGROV1 ovarian
[14] = test system: NCI-H23 lung
[15] = test system: ACHN renal
[16] = test system: A549 NSCLC
[17] = test system: SNB-75 CNS
[18] = test system: HT29 colon
[19] = test system: SK-MEL-28 melanoma
[20] = test system: HOP-62 NSCLC
[21] = test system: U251 CNS
[22] = test system: TK-10 renal
[23] = test system: COLO 205 colon
[24] = test system: SK-OV-3 ovarian
[25] = test system: RXF 393 renal
[26] = test system: OVCAR-8 ovarian
[27] = test system: NCI-H460 lung
[28] = test system: MALME-3M melanoma
[29] = test system: OVCAR-5 ovarian
[30] = test system: NCI/ADR-RES ovarian
[31] = test system: UO-31 renal
[32] = test system: SW-620 colon
[33] = test system: KM12 colon
[34] = test system: LOX IMVI melanoma
[35] = test system: SN12C renal
[36] = test system: HCT-15 colon
[37] = test system: SR leukemia
[38] = test system: NCI-H226 lung
[39] = test system: T-47D breast
[40] = test system: NCI-H522 lung
[41] = test system: DU-145 prostate
[42] = test system: MDA-MB-231 breast
[43] = test system: SK-MEL-5 melanoma
[44] = test system: HCT-116 colon
[45] = test system: UACC-62 melanoma
[46] = test system: MDA-MB-435
[47] = test system: K-562 leukemia
[48] = test system: OVCAR-4 ovarian
[49] = test system: RPMI-8226 leukemia
[50] = test system: SK-MEL-2 melanoma
[51] = test system: 786-0 renal
[52] = test system: EKVX NSCLC
[53] = test system: CAKI-1 renal
[54] = test system: BT-549 breast
[55] = test system: UACC-257 melanoma
[56] = test system: CCRF-CEM leukemia
[57] = test system: HOP-92 NSCLC
[58] = test system: SNB-19 CNS

In the case of `Oc1ccc(OCCOc2ccc(O)cc2)cc1`, the GI50 [1] is reported as 5.22 µM, the TGI [1] is reported as > 100 µM and the GI50 [2] is reported as 3.94 µM. For the same molecule, the TGI [2] was > 100 µM, the GI50 [3] was 2.75 µM and the TGI [3] was > 100 µM. It also gave a GI50 [4] of 2.36 µM, a TGI [4] of 16.6 µM and a GI50 [5] of 4.77 µM. For the same molecule, the TGI [5] was > 100 µM, the GI50 [6] was 3.17 µM and the TGI [6] was > 100 µM. The GI50 [7] was 3.36 µM, the TGI [7] was 95.9 µM and the GI50 [8] was 3.03 µM. For the same molecule, the TGI [8] was 23.5 µM, the GI50 [9] was 5.67 µM and the TGI [9] was > 100 µM. The GI50 [10] was 8.82 µM, the TGI [10] was > 100 µM and the GI50 [11] was > 100 µM. For the same molecule, the TGI [11] was > 100 µM, the GI50 [12] was 2.2 µM and the TGI [12] was 28.2 µM. For the same molecule, the GI50 [13] was 5.94 µM, the TGI [13] was > 100 µM and the GI50 [14] was 4.5 µM. The TGI [14] was > 100 µM, the GI50 [15] was 0.964 µM and the TGI [15] was > 100 µM. The GI50 [16] was 3.5 µM, the TGI [16] was > 100 µM and the GI50 [17] was > 100 µM. For the same molecule, the TGI [17] was > 100 µM, the GI50 [18] was 12.7 µM and the TGI [18] was > 100 µM. For the same molecule, the GI50 [19] was 88.9 µM, the TGI [19] was > 100 µM and the GI50 [20] was 8.97 µM. For the same molecule, the TGI [20] was > 100 µM, the GI50 [21] was 4.41 µM and the TGI [21] was > 100 µM. For the same molecule, the GI50 [22] was 6.65 µM, the TGI [22] was > 100 µM and the GI50 [23] was 21.3 µM. For the same molecule, the TGI [23] was 60.6 µM, the GI50 [24] was 99.2 µM and the TGI [24] was > 100 µM. For the same molecule, the GI50 [25] was 6.18 µM, the TGI [25] was > 100 µM and the GI50 [26] was 3.37 µM. The TGI [26] was > 100 µM, the GI50 [27] was 3.57 µM and the TGI [27] was > 100 µM. The GI50 [28] was 3.69 µM, the TGI [28] was > 100 µM and the GI50 [29] was 10.4 µM. The TGI [29] was > 100 µM, the GI50 [30] was 3.41 µM and the TGI [30] was > 100 µM. The GI50 [31] was 1.47 µM, the TGI [31] was 8.83 µM and the GI50 [32] was 3.68 µM. The TGI [32] was > 100 µM, the GI50 [33] was 2.26 µM and the TGI [33] was > 100 µM. For the same molecule, the GI50 [34] was 1.24 µM, the TGI [34] was > 100 µM and the GI50 [35] was 5.72 µM. For the same molecule, the TGI [35] was > 100 µM, the GI50 [36] was 8.55 µM and the TGI [36] was > 100 µM. The GI50 [37] was 7.41 µM, the TGI [37] was > 100 µM and the GI50 [38] was 4.98 µM. The TGI [38] was > 100 µM, the GI50 [39] was 4.15 µM and the TGI [39] was > 100 µM. The GI50 [40] was 1.72 µM, the TGI [40] was 55.9 µM and the GI50 [41] was 2.8 µM. For the same molecule, the TGI [41] was > 100 µM, the GI50 [42] was 0.414 µM and the TGI [42] was > 100 µM. For the same molecule, the GI50 [43] was 1.5 µM, the TGI [43] was 4.36 µM and the GI50 [44] was 6.24 µM. The TGI [44] was > 100 µM, the GI50 [45] was 2.45 µM and the TGI [45] was 13.8 µM. The GI50 [46] was 3.22 µM, the TGI [46] was > 100 µM and the GI50 [47] was 3.08 µM. The TGI [47] was > 100 µM, the GI50 [48] was > 100 µM and the TGI [48] was > 100 µM. For the same molecule, the GI50 [49] was 9.24 µM, the TGI [49] was > 100 µM and the GI50 [50] was 8.26 µM. The TGI [50] was 82.6 µM, the GI50 [51] was 3.26 µM and the TGI [51] was > 100 µM. The GI50 [52] was 11.2 µM, the TGI [52] was > 100 µM and the GI50 [53] was 0.987 µM. The TGI [53] was 20.6 µM, the GI50 [54] was 8.08 µM and the TGI [54] was > 100 µM. For the same molecule, the GI50 [55] was 6.08 µM, the TGI [55] was > 100 µM and the GI50 [56] was 2.27 µM. The TGI [56] was > 100 µM, the GI50 [57] was 3.65 µM and the TGI [57] was > 100 µM. For the same molecule, the GI50 [58] was 27.8 µM and the TGI [58] was > 100 µM.
In the case of `COc1ccccc1/C=C/C(=O)c1ccc(Nc2nc(Nc3ccc(F)cc3)nc(Nc3ccc(F)cc3)n2)cc1`, the GI50 [1] is reported as 3.77 µM, the TGI [1] is reported as > 100 µM and the GI50 [2] is reported as 45.7 µM. The TGI [2] was > 100 µM, the GI50 [3] was 5.49 µM and the TGI [3] was > 100 µM. It also gave a GI50 [4] of 14.4 µM, a TGI [4] of 98.5 µM and a GI50 [5] of 5.45 µM. For the same molecule, the TGI [5] was > 100 µM, the GI50 [6] was 13.3 µM and the TGI [6] was 47.2 µM. The GI50 [7] was 25.2 µM, the TGI [7] was > 100 µM and the GI50 [8] was 25.5 µM. The TGI [8] was 86.7 µM, the GI50 [9] was 22.2 µM and the TGI [9] was > 100 µM. The GI50 [10] was 6.13 µM, the TGI [10] was 97.8 µM and the GI50 [11] was 8.29 µM. It also gave a TGI [11] of 71.1 µM, a GI50 [12] of 1.73 µM and a TGI [12] of 17.6 µM. For the same molecule, the GI50 [13] was 22.6 µM, the TGI [13] was > 100 µM and the GI50 [14] was 18.9 µM. The TGI [14] was > 100 µM, the GI50 [15] was 25.2 µM and the TGI [15] was > 100 µM. The GI50 [16] was 10.9 µM, the TGI [16] was > 100 µM and the GI50 [17] was 50.6 µM. The TGI [17] was > 100 µM, the GI50 [18] was 15.8 µM and the TGI [18] was > 100 µM. The GI50 [19] was 33.6 µM, the TGI [19] was > 100 µM and the GI50 [20] was 16.3 µM. For the same molecule, the TGI [20] was 77.6 µM, the GI50 [21] was 9.8 µM and the TGI [21] was > 100 µM. For the same molecule, the GI50 [22] was 48.6 µM, the TGI [22] was > 100 µM and the GI50 [23] was 2.55 µM. For the same molecule, the TGI [23] was 55.1 µM, the GI50 [24] was 69.7 µM and the TGI [24] was > 100 µM. The GI50 [25] was 2.49 µM, the TGI [25] was 9.37 µM and the GI50 [26] was 9.4 µM. For the same molecule, the TGI [26] was > 100 µM, the GI50 [27] was 9.38 µM and the TGI [27] was > 100 µM. It also gave a GI50 [28] of 20.1 µM, a TGI [28] of 46.5 µM and a GI50 [29] of 51.9 µM. The TGI [29] was > 100 µM, the GI50 [30] was 13 µM and the TGI [30] was > 100 µM. For the same molecule, the GI50 [31] was 9.52 µM, the TGI [31] was > 100 µM and the GI50 [32] was 6.49 µM. The TGI [32] was > 100 µM, the GI50 [33] was 7.67 µM and the TGI [33] was > 100 µM. For the same molecule, the GI50 [34] was 21.1 µM, the TGI [34] was > 100 µM and the GI50 [35] was 51.2 µM. For the same molecule, the TGI [35] was > 100 µM, the GI50 [36] was 6.57 µM and the TGI [36] was > 100 µM. The GI50 [37] was 4.34 µM, the TGI [37] was > 100 µM and the GI50 [38] was 6.61 µM. The TGI [38] was > 100 µM, the GI50 [39] was 8.01 µM and the TGI [39] was > 100 µM. For the same molecule, the GI50 [40] was 23 µM, the TGI [40] was > 100 µM and the GI50 [41] was 55.9 µM. The TGI [41] was > 100 µM, the GI50 [42] was 25.8 µM and the TGI [42] was > 100 µM. It also gave a GI50 [43] of 10.5 µM, a TGI [43] of 40 µM and a GI50 [44] of 4.58 µM. For the same molecule, the TGI [44] was > 100 µM, the GI50 [45] was 55.5 µM and the TGI [45] was > 100 µM. The GI50 [46] was 19.4 µM, the TGI [46] was 90.7 µM and the GI50 [47] was 9.94 µM. The TGI [47] was > 100 µM, the GI50 [48] was 65.3 µM and the TGI [48] was > 100 µM. The GI50 [49] was 3.03 µM, the TGI [49] was 16.3 µM and the GI50 [50] was 25.2 µM. For the same molecule, the TGI [50] was > 100 µM, the GI50 [51] was 2.85 µM and the TGI [51] was 14.9 µM. The GI50 [52] was 38.1 µM, the TGI [52] was > 100 µM and the GI50 [53] was > 100 µM. For the same molecule, the TGI [53] was > 100 µM, the GI50 [54] was 13.5 µM and the TGI [54] was > 100 µM. It also gave a GI50 [55] of 22 µM, a TGI [55] of 66.6 µM and a GI50 [56] of 5.6 µM. For the same molecule, the TGI [56] was > 100 µM, the GI50 [57] was 7.24 µM and the TGI [57] was 46.5 µM. The GI50 [58] was 74.2 µM and the TGI [58] was > 100 µM.

From PubChem BioAssay (NCI)
